In brackets after ≈: the same amount, converted by molar mass. No end group written: not given here.
Key:
[1] = system: S. aureus; test: Bacterial resistance development, serial passage; type: cell-based, Staphylococcus aureus; settings: passaged every 24 h, n = 4
[2] = Organ; type: in vivo, ICR mice; settings: mice, 10 mg/kg
[3] = Blood test, RBC parameters after intraperitoneal injection; type: in vivo, ICR mice; settings: mice, 24 h after intraperitoneal injection
[4] = system: E. coli (ATCC BAA-1025); test: Minimal inhibition concentration; type: cell-based; settings: Escherichia coli, ATCCBAA1025, 20 h, read-out: Antimicrobial activity (MIC in µg/ml) E. coli
[5] = system: S. aureus (ATCC 25904); test: Minimal inhibition concentration; type: cell-based; settings: Staphylococcus aureus, ATCC25904, 20 h, read-out: Antimicrobial activity (MIC in µg/ml) S. aureus
[6] = system: K. pneumoniae (ATCC27736); test: Minimal inhibition concentration; type: cell-based; settings: Klebsiella pneumoniae, ATCC27736, 20 h, read-out: Antimicrobial activity (MIC in µg/ml) K. pneumoniae
[7] = system: P. aeruginosa (ATCC 47085); test: Minimal inhibition concentration; type: cell-based; settings: Pseudomonas aeruginosa, ATCC47085, 20 h, read-out: Antimicrobial activity (MIC in µg/ml) P. aeruginosa
[8] = system: P. aeruginosa; test: Wound mouse model, bacterial load on the wound surface; type: in vivo, Female ICR mice; settings: 10^7 CFU P. aeruginosa inoculated; 10 mg/kg applied to wound twice a day; n = 8

Compound | organ-specific toxicity, tissue section images [2] | Blood test results [3] | MIC [6] [µg/mL] | other results
O=C(O)c1cn(C2CC2)c2cc(N3CCNCC3)c(F)cc2c1=O [ciprofloxacin] |  |  |  | passages after which S. aureus began to develop resistance [1]: 10 passages
RQIRIWFQWKRWKWKR [T2-10] | did not observe organ-specific toxicity | no obvious changes |  | 
C[C@H]1COc2c(N3CCN(C)CC3)c(F)cc3c(=O)c(C(=O)O)cn1c23 [Levofloxacin] |  |  | 0.06 (≈ 0.166 µM) | MIC [4]: 2.93 µg/mL (≈ 8.11 µM); MIC [5]: 0.09 µg/mL (≈ 0.249 µM); MIC [7]: 7.81 µg/mL (≈ 21.6 µM); bacteria on the infected wound after 24 h treatment [8]: 0 CFU
CN[C@H](CC(C)C)C(=O)N[C@H]1C(=O)N[C@@H](CC(N)=O)C(=O)N[C@H]2C(=O)N[C@H]3C(=O)N[C@H](C(=O)N[C@H](C(=O)O)c4cc(O)cc(O)c4-c4cc3ccc4O)[C@H](O)c3ccc(c(Cl)c3)Oc3cc2cc(c3O[C@@H]2O[C@H](CO)[C@@H](O)[C@H](O)[C@H]2O[C@H]2C[C@](C)(N)[C@H](O)[C@H](C)O2)Oc2ccc(cc2Cl)[C@H]1O [Vancomycin] |  |  | 1000 (≈ 690 µM) | 
RQIKIWFQWRRWKWKK [T1-5] | did not observe organ-specific toxicity | no obvious changes |  | 
RQIKIWFQIRRWKWKK [T1-2] | did not observe organ-specific toxicity | no obvious changes |  | 
